{"source": "patent US11707448B2", "about": "“Combination therapies for the treatment of cancer” (Eisai R&D Management Co., Ltd., priority 2014, dated 2023)", "format_in_all_cases": "in vivo, mice", "key": {"[1]": {"test_system": "immune cells in the CT26 tumors", "experiment": "Flow cytometry of intratumoral immune cells in CT26 tumors", "method": "FIG. 7A to FIG. 7B. Radiation and ER-886046 worked synergistically to modify the intratumoral immunity. Panel shown in FIG. 7A) Quantification of myeloid cells (CD11b^+) and cytotoxic T cells (CD8^+) in the CT26 tumors that received 9 Gy alone, 9 Gy+ER-886046, or vehicle alone. Panel shown in FIG. 7B) Quantification of myeloid-derived suppressor cells (MDSC cells, CD11b^+Gr1^+) in the tumors. Radiation was given once to the tumors on the day of randomization, while ER-886046 was administered po daily administrated at 150 mg/kg to the animals for 7 consecutive days after randomization. The tumors were analyzed by flow cytometry one day after the last dose of ER-886046. **, p<0.01; ns, not significant; student t-test.\nFlow cytometry; CT26 tumors with or without treatments received were surgically resected and minced by physical pressure, followed by digestion with collagenase I at 1 mg/ml at 37° C. for 1 h. The single cell mixtures from the digestion were labelled by incubation with fluorescent antibodies against immune cell antigens and analysed by flow cytometry. Cell population calculation was performed by software FlowJo 7.6."}, "PAN02 pancreatic tumors": {"test_system": "PAN02 pancreatic tumors", "experiment": "PAN02 pancreatic tumor model, ER-886046 with gemcitabine and radiation", "method": "FIG. 10. […] Antitumor activity of gemcitabine plus local radiation (RT) administered to PAN02 pancreatic tumors in C57BL/6 mice with or without ER-886046. Gemcitabine and RT dosing: a single 40 mg/kg dose of gemcitabine and a single 6 Gy dose of RT, was administered on day 27 post tumor cell injection. ER-8806046 was administered daily in an amount of 150 mg/kg from day 27 post tumor cell injection until the end of the study.\nFIG. 11A to FIG. 11B. Additional experiments with combination therapy of ER-886046 and anti-metabolite chemotherapy with radiation compared to anti-metabolite chemotherapy with radiation alone. Panel shown in FIG. 11A) Gemcitabine and RT dosing: a single 40 mg/kg dose of gemcitabine and a single 6 Gy dose of RT, was administered on day 19 post tumor cell injection. ER-8806046 was administered daily in an amount of 150 mg/kg from day 19 post tumor cell injection until the end of the study. Panel shown in FIG. 11B) Gemcitabine and RT dosing: a single 40 mg/kg dose of gemcitabine and a single 6 Gy dose of RT, was administered on day 12 post tumor cell injection. ER-8806046 was administered daily in an amount of 150 mg/kg from day 12 post tumor cell injection until the end of the study. Average tumor sizes of mouse pancreatic PAN02 tumor-bearing mice that received vehicles, ER-886046, gemcitabine (gem) plus radiation (RT), ER-886046 plus RT, or ER-886046 plus gemcitabine and RT at indicated dosages and schedules. A and B represent each independent study. N=8-10 per group. NS, not significant; *, p<0.05; **, p<0.01; ***, p<0.001; and ****, p<0.0001, two-way ANOVA test.\nAnimal studies; In vitro cultured cancer cells were harvested and suspended in 100 μl of cold HBSS buffer at cell concentrations of 1.0×10^6 cells/ml (CT-26 cells) or of 1.0×10^7 cells/ml (PAN02 cells) and subcutaneously (sc) injected into the mice using a 26 g syringe on day 0. At the dates as indicated in the figures, the mice were randomized based on the tumor size followed by treatments with local radiation alone, gemcitabine alone (intravenous administration), ER-886046 alone (oral administration), or combinations of these treatments. […] The tumor sizes were measured twice a week by a digital caliber (Mitutoyo Corp), and the volume was calculated using the formula (1×w^2)/2=mm^3, where 1 and w refer to the larger and smaller perpendicular dimensions collected at each measurement. Graphs of group tumor sizes (mean±SEM) versus time were plotted using software GraphPad Prism 6 (Lake Forest, Calif.). Two way ANOVA was used for statistical calculation among the groups. N=8-10 in each treatment group."}, "CT26 tumors": {"test_system": "CT26 tumors", "experiment": "CT26 tumor model, ER-886046 with anti-PDL1 or anti-PD1", "method": "FIG. 9A to FIG. 9B. […] Anti-PDL1 dosing: 200 μg per iv injection on days 9, 12, 15 and 18 post cell implantation as indicated by the arrows; […] Anti-PD1 dosing: 200 μg per iv injection on days 9, 12, 15, 18 and 21 post cell implantation as indicated by the arrows; […] Animal studies; In vitro cultured cancer cells were harvested and suspended in 100 μl of phosphate buffered saline at a cell concentration of 1.0×10^5 cells/ml and subcutaneously (sc) injected into the mice using a 26 g syringe on day 0. […] The animals that were assigned to the treatment groups in individual study had close mean tumor weights in all groups. […] Graphs of group tumor sizes (mean±SEM) and body weights (mean±SEM) versus time were plotted using software GraphPad Prism 6 (Lake Forest, Calif.). Student t-test and Gehan-Breslow-Wilcoxon test were used for statistical analysis."}}, "data": [{"smiles": "C[C@H](NC(=O)c1c(C(F)F)nn(C)c1Oc1cccc(C(F)(F)F)c1)c1ccc(C(=O)O)cc1", "note": "[ER-886046]", "values": [{"measurement": "ratio of Gr1+ cells among CD45+CD11b+ cells (MDSC)", "setting": "[1]; ER-886046 150 mg/kg po daily 7 days + 9 Gy radiation, vs vehicle or radiation alone", "value": "reduced the ratio of Gr1^+ cells among CD45^+CD11b^+ cells"}, {"measurement": "tumor infiltration frequency of CD8+ T cells and CD11b+ myeloid cells", "setting": "[1]; ER-886046 150 mg/kg po daily 7 days added to 9 Gy radiation, vs radiation alone", "value": "no additional significant effect"}, {"measurement": "anti-tumor activity, ER-886046 plus RT vs triple combination", "setting": "PAN02 pancreatic tumors; ER-886046 150 mg/kg daily + RT 6 Gy, first study (FIG. 10)", "value": "no significant difference in the anti-tumor activity"}, {"measurement": "anti-tumor activity, triple combination", "setting": "PAN02 pancreatic tumors; ER-886046 150 mg/kg daily from day 27 + gemcitabine 40 mg/kg + RT 6 Gy day 27, first study (FIG. 10)", "value": "best anti-tumor activity among the treatment groups"}, {"measurement": "anti-tumor activity, ER-886046 alone", "setting": "PAN02 pancreatic tumors; ER-886046 150 mg/kg daily from day 27, first study (FIG. 10)", "value": "more efficacious than RT plus gemcitabine"}, {"measurement": "tumor-bearing animals cured", "setting": "PAN02 pancreatic tumors; triple combination ER-886046 + gemcitabine + RT, day 36 after tumor cell inoculation (FIG. 11B)", "value": "five of eight"}, {"measurement": "anti-tumor activity compared to anti-PDL1 alone", "setting": "CT26 tumors; ER-886046 150 mg/kg po daily day 9-19 + anti-PDL1 200 μg", "value": "better anti-tumor activity"}, {"measurement": "anti-tumor activity compared to anti-PD1 alone", "setting": "CT26 tumors; ER-886046 150 mg/kg po daily day 9-23 + anti-PD1 200 μg", "value": "better anti-tumor activity"}]}]}
